Laboratory results reported in ChEMBL document CHEMBL1201862, “PubChem BioAssay data set” (2004).
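These data come from cells grown in 96-well plates and exposed to compound for 48 hours at five concentrations. Abbreviation: GI50, concentration required for 50% inhibition of growth.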 Activity calls are given as the source filed them. Cut-off read from the data, not from the text of the source: active = GI50 up to about 1.1 µM and inactive = higher.

Experiments:
Test in all cases: NCI anticancer screen, dose series, 48 h
NCI/ADR-RES = tested on: NCI/ADR-RES
EKVX = tested on: EKVX
MDA-N = tested on: MDA-N
DU-145 = tested on: DU-145
HOP-92 = tested on: HOP-92
HT-29 = tested on: HT-29
SW-620 = tested on: SW-620
A549 = tested on: A549
UACC-62 = tested on: UACC-62
K562 = tested on: K562
COLO 205 = tested on: COLO 205
SK-MEL-5 = tested on: SK-MEL-5
HCT-15 = tested on: HCT-15
PC-3 = tested on: PC-3
KM12 = tested on: KM12
U-251 = tested on: U-251
Malme-3M = tested on: Malme-3M
SF-295 = tested on: SF-295
HOP-62 = tested on: HOP-62
DLD-1 = tested on: DLD-1

SMILES	GI50 (NCI/ADR-RES)	GI50 (EKVX)	GI50 (MDA-N)	GI50 (DU-145)	GI50 (HOP-92)	GI50 (HT-29)	GI50 (SW-620)	GI50 (A549)	GI50 (UACC-62)	GI50 (K562)	GI50 (COLO 205)	GI50 (SK-MEL-5)	GI50 (HCT-15) [µM]	GI50 (PC-3)	GI50 (KM12)	GI50 (U-251)	GI50 (Malme-3M)	GI50 (SF-295)	GI50 (HOP-62)	GI50 (DLD-1)
CCCC(=O)OCOC(=O)N(C)/N=N/c1ccc(C(=O)OCC)cc1	28.9 µM (inactive)	37.9 µM (inactive)	28.6 µM (inactive)	22.2 µM (inactive)	19.4 µM (inactive)	18.2 µM (inactive)	19.8 µM (inactive)	19.3 µM (inactive)	15.4 µM (inactive)	47.6 µM (inactive)	18.7 µM (inactive)	29.6 µM (inactive)	19.9	25.1 µM (inactive)	26.4 µM (inactive)	25.2 µM (inactive)	20.1 µM (inactive)	15.8 µM (inactive)	29 µM (inactive)	
COC(=O)/C(=N\NC(N)=S)C(C(=O)OC)C(=O)C(=O)Nc1ccc(C)cc1 (configuration not stated)		> 100 µM (inactive)				> 100 µM (inactive)	> 100 µM (inactive)	> 100 µM (inactive)	> 100 µM (inactive)	> 100 µM (inactive)	> 100 µM (inactive)	> 100 µM (inactive)	> 100		> 100 µM (inactive)	> 100 µM (inactive)	> 100 µM (inactive)	> 100 µM (inactive)	> 100 µM (inactive)	> 100 µM (inactive)
CNC(=O)c1nnn(C2CCCCC2)c1S	> 100 µM (inactive)	> 100 µM (inactive)	> 100 µM (inactive)	> 100 µM (inactive)	> 100 µM (inactive)	> 100 µM (inactive)	> 100 µM (inactive)	> 100 µM (inactive)	> 100 µM (inactive)	> 100 µM (inactive)	> 100 µM (inactive)	> 100 µM (inactive)	> 100	> 100 µM (inactive)	> 100 µM (inactive)	> 100 µM (inactive)	> 100 µM (inactive)	> 100 µM (inactive)	> 100 µM (inactive)	
Cc1ccc(C2=C(c3ccccc3)C(=O)C(c3ccccc3)=C2c2ccc(C)cc2)cc1		38 µM (inactive)				33.5 µM (inactive)	37.9 µM (inactive)	43.7 µM (inactive)		22.1 µM (inactive)		55.1 µM (inactive)	32.4		36.5 µM (inactive)	25.1 µM (inactive)	31 µM (inactive)	18.4 µM (inactive)	> 100 µM (inactive)	41.2 µM (inactive)
c1ccc2cc3c(NC4=NCCO4)cccc3cc2c1	75.2 µM (inactive)	76.2 µM (inactive)	1.79 µM (inactive)	78.7 µM (inactive)	17.6 µM (inactive)	29.9 µM (inactive)	> 100 µM (inactive)	> 100 µM (inactive)	> 100 µM (inactive)	37.2 µM (inactive)	35.9 µM (inactive)	35 µM (inactive)	> 100	45.1 µM (inactive)	44.7 µM (inactive)	> 100 µM (inactive)	36.1 µM (inactive)	> 100 µM (inactive)	> 100 µM (inactive)	
COC(=O)[C@]12CC[C@H]3CN(C(=O)OCc4ccccc4)[C@H]([C@H]31)[C@H](c1ccco1)N2S(=O)(=O)c1ccc(C)cc1	23.5 µM (inactive)	44.4 µM (inactive)	18.9 µM (inactive)	32.3 µM (inactive)	12.8 µM (inactive)	20.6 µM (inactive)	30.4 µM (inactive)	31.8 µM (inactive)	15 µM (inactive)	16.9 µM (inactive)	19.8 µM (inactive)	16.5 µM (inactive)	15.4	31 µM (inactive)	19.3 µM (inactive)	27.9 µM (inactive)	21.3 µM (inactive)	25.9 µM (inactive)	25.8 µM (inactive)	
O=c1oc2ccc3ccccc3c2cc1-c1nc2ccccc2o1	20 µM (inactive)	20.6 µM (inactive)	23.3 µM (inactive)	20.7 µM (inactive)	16.4 µM (inactive)	20.7 µM (inactive)	21.8 µM (inactive)	28.2 µM (inactive)	36.1 µM (inactive)	58.3 µM (inactive)	53.5 µM (inactive)	25.9 µM (inactive)	36.6	28.1 µM (inactive)	27.3 µM (inactive)	22.2 µM (inactive)	13.7 µM (inactive)	26.2 µM (inactive)	18.6 µM (inactive)	
O=C1Nc2ccccc2/C1=C\c1c(-c2ccccc2)nc2n1CCS2	23.1 µM (inactive)	17.7 µM (inactive)	13.1 µM (inactive)	13.6 µM (inactive)	39.3 µM (inactive)	19.5 µM (inactive)	29.3 µM (inactive)	28.4 µM (inactive)	13 µM (inactive)	19.5 µM (inactive)	29 µM (inactive)	16.5 µM (inactive)	18.6	19.1 µM (inactive)	16.8 µM (inactive)	20.5 µM (inactive)	26.9 µM (inactive)	17.3 µM (inactive)	29.2 µM (inactive)	
